From patent publication US8940731B2, “Substituted pyridyl amide compounds as modulators of the histamine H3 receptor” (Janssen Pharmaceutica NV, priority 2006, dated 2015)
Structures can show the parent of a compound that is named as a salt. Where two headings read alike, the source gives them in different places.

Key:
[1] = target: T1, cloned human H3 receptors (Homo sapiens, UniProt Q9Y5N1); experiment: H3 Receptor Binding (Human); details: cloned human H3 receptors stably expressed in SK-N-MC cells; average of the results obtained; read-out: Human H3 Ki
T1 construct: expressed in transfected cells
Method: H3 Receptor Binding (Human)
Binding of compounds to the cloned human H3 receptors, stably expressed in SK-N-MC cells, was performed as described by Barbier, A. J. et al. (Br. J. Pharmacol. 2004, 143(5), 649-661).

[2] = target: T2, Rat H3 (Rattus norvegicus, UniProt Q9QYN8); experiment: H3 Receptor Binding (Rat); details: rat brain membranes without cerebellum, 0.8 nM N-[3H]-α-methylhistamine, 60 min at 25° C.; average of the results obtained
Method: H3 Receptor Binding (Rat)
A rat brain without cerebellum (Zivic Laboratories Inc., Pittsburgh, Pa.) was homogenized in 50 mM Tris-HCl/5 mM EDTA and centrifuged at 1,000 rpm for 5 min. The supernatant was removed and recentrifuged at 15,000 rpm for 30 min. Pellets were rehomogenized in 50 mM Tris/5 mM EDTA (pH 7.4). Membranes were incubated with 0.8 nM N-[^3H]-α-methylhistamine plus/minus test compounds for 60 min at 25° C. and harvested by rapid filtration over GF/C glass fiber filters (pretreated with 0.3% polyethylenimine) followed by four washes with buffer. Nonspecific binding was defined in the presence of 100 μM histamine.
Target sequence in this assay (Q9QYN8 1-397 isoform Q9QYN8-3): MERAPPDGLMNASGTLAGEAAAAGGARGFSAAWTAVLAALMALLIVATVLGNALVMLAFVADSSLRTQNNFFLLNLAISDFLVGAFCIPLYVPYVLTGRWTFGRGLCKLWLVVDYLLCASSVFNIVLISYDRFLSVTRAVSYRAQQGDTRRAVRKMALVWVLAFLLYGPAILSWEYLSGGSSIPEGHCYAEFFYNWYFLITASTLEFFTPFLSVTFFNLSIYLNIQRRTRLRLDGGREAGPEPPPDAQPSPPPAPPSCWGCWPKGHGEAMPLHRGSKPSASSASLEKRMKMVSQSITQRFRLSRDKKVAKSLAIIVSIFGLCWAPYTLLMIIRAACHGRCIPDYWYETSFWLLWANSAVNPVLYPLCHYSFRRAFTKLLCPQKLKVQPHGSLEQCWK

[3] = target: T3, human H3 receptor (Homo sapiens, UniProt Q9Y5N1); experiment: Cyclic AMP Accumulation (human H3 receptor); assay type: cell-based
T3 construct: expressed in transfected cells; host or cells: SK-N-MC sublines with a reporter construct
Text: (§1) Sublines of SK-N-MC cells were created that expressed a reporter construct and either the human or rat H3 receptor.

[4] = target: T2, Rat H3; experiment: cell-based
Text: as §1
Target sequence in this assay (Q9QYN8 whole entry): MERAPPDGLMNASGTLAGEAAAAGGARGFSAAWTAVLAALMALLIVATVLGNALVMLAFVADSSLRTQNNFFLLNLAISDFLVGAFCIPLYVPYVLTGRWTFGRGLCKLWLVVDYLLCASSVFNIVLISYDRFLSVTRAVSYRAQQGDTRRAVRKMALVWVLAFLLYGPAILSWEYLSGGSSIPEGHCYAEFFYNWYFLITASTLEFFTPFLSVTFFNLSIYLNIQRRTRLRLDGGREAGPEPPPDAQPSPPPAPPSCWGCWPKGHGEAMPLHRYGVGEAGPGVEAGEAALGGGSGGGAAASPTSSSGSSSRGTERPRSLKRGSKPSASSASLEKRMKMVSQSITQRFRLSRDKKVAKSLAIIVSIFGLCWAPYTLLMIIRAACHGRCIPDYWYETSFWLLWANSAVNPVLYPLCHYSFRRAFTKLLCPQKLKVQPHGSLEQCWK

[5] = SK-N-MC subline expressing reporter construct and rat H3 receptor, average, read-out: Rat pA2 (converted)
[6] = SK-N-MC subline expressing reporter construct and human H3 receptor, average
[7] = SK-N-MC subline expressing reporter construct and rat H3 receptor, average
[8] = SK-N-MC subline expressing reporter construct and human H3 receptor, average, read-out: Human pA2 (converted)

T3 sequence (Q9Y5N1 whole entry): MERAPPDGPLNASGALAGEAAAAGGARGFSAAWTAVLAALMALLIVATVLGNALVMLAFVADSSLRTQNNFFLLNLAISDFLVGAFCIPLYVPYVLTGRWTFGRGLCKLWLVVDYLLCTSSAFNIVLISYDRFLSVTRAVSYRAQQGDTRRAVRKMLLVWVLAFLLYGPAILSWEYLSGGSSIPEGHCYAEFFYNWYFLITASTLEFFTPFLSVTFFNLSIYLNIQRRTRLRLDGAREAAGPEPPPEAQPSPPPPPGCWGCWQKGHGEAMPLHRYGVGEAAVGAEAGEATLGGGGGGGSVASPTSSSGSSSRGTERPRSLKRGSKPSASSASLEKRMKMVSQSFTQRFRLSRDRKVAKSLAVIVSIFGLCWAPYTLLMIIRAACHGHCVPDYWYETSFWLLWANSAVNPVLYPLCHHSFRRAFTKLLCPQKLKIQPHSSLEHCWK
T1 sequence (Q9Y5N1 whole entry): as above

Row | Kb [4, 5] | Human pA2 [3, 6] | Kb [3, 8] | SMILES | Ki [1] | Ki [2] | Kb [3] | Kb [4] | Rat pA2 [4, 7]
1 | – | – | – | Cc1cc(Oc2ccc(C(=O)N3CCCN(C4CC4)CC3)cn2)ccc1Cl [Example 12, [6-(4-Chloro-3-methyl-phenoxy)-pyridin-3-yl]-(4-cyclopropyl-[1,4]diazepan-1-yl)-methanone] | 5 nM | 51 nM | 5.5 nM | – | –
2 | – | – | – | Cc1ccccc1Oc1ccc(C(=O)N2CCCN(C3CCC3)CC2)cn1 [Example 102, (4-Cyclobutyl-[1,4]diazepan-1-yl)-(6-o-tolyloxy-pyridin-3-yl)-methanone] | 1 nM | 17 nM | 0.2 nM | 1.2 nM | –
3 | – | – | – | O=C(c1ccc(Oc2ccc(Cl)c(Cl)c2)nc1)N1CCCN(C2CC2)CC1 [Example 9, (4-Cyclopropyl-[1,4]diazepan-1-yl)-[6-(3,4-dichloro-phenoxy)-pyridin-3-yl]-methanone] | 11 nM | 130 nM | 8.71 nM | 44.7 nM | –
4 | 3.16 nM | 9.48 | – | O=C(c1ccc(Sc2ccccc2)nc1)N1CCCN(C2CCC2)CC1 [Example 86, (4-Cyclobutyl-[1,4]diazepan-1-yl)-(6-phenylsulfanyl-pyridin-3-yl)-methanone] | 1 nM | – | – | – | –
5 | – | 9.40 | – | O=C(c1ccc(Oc2cccc(F)c2)nc1)N1CCCN(C2CCC2)CC1 [Example 39, (4-Cyclobutyl-[1,4]diazepan-1-yl)-[6-(3-fluoro-phenoxy)-pyridin-3-yl]-methanone] | 1 nM | 21 nM | – | – | 8.38
6 | 4.37 nM | – | 0.708 nM | O=C(c1ccc(Oc2cccc(Cl)c2)nc1)N1CCCN(C2CCC2)CC1 [Example 24, [6-(3-Chloro-phenoxy)-pyridin-3-yl]-(4-cyclobutyl-[1,4]diazepan-1-yl)-methanone] | 1 nM | 15 nM | – | – | –
7 | – | – | – | Cc1ccc(Oc2ccc(C(=O)N3CCCN(C4CCC4)CC3)cn2)cc1 [Example 104, (4-Cyclobutyl-[1,4]diazepan-1-yl)-(6-p-tolyloxy-pyridin-3-yl)-methanone] | 2 nM | – | 0.724 nM | 4.27 nM | –
8 | – | – | – | O=C(c1ccc(Oc2ccc(Cl)c(Cl)c2)cn1)N1CCCN(C2CCC2)CC1 [Example 51, (4-Cyclobutyl-[1,4]diazepan-1-yl)-[5-(3,4-dichloro-phenoxy)-pyridin-2-yl]-methanone trifluoroacetic acid salt] | 2 nM | 60 nM | 2.29 nM | 21.9 nM | –
9 | – | – | – | O=C(c1ccc(Oc2ccc(Cl)c(Cl)c2)nc1)N1CCCN(C2CCCC2)CC1 [Example 66, (4-Cyclopentyl-[1,4]diazepan-1-yl)-[6-(3,4-dichloro-phenoxy)-pyridin-3-yl]-methanone] | 1 nM | – | 1.12 nM | 11.5 nM | –
10 | 3.8 nM | 9.22 | – | O=C(c1ccc(Oc2ccc(Cl)cc2)nc1)N1CCCN(C2CCC2)CC1 [Example 25, [6-(4-Chloro-phenoxy)-pyridin-3-yl]-(4-cyclobutyl-[1,4]diazepan-1-yl)-methanone] | 1 nM | 25 nM | – | – | –
11 | – | 8.53 | – | N#Cc1cccc(Oc2ccc(C(=O)N3CCCN(C4CC4)CC3)cn2)c1 [Example 11, 3-[5-(4-Cyclopropyl-[1,4]diazepane-1-carbonyl)-pyridin-2-yloxy]-benzonitrile] | 7 nM | 447 nM | – | – | –
12 | – | – | – | O=C(c1ccc(Oc2ccc(F)cc2)nc1)N1CCCN(C2CCCC2)CC1 [Example 67, (4-Cyclopentyl-[1,4]diazepan-1-yl)-[6-(4-fluoro-phenoxy)-pyridin-3-yl]-methanone] | 2 nM | – | 1.35 nM | 6.76 nM | –
13 | – | – | – | N#Cc1nc(C(=O)N2CCCN(C3CC3)CC2)ccc1Oc1ccccc1F [Example 61, 6-(4-Cyclopropyl-[1,4]diazepane-1-carbonyl)-3-(2-fluoro-phenoxy)-pyridine-2-carbonitrile] | 6 nM | – | 3.63 nM | 32.4 nM | –
14 | 1.2 nM | – | 0.309 nM | O=C(c1ccc(Oc2ccccc2Cl)nc1)N1CCCN(C2CCC2)CC1 [Example 73, [6-(2-Chloro-phenoxy)-Pyridin-3-yl]-(4-cyclobutyl-[1,4]diazepan-1-yl)-methanone] | 4 nM | – | – | – | –
15 | – | – | – | N#Cc1nc(C(=O)N2CCCN(C3CC3)CC2)ccc1Oc1cccnc1 [Example 56, 6-(4-Cyclopropyl-[1,4]diazepane-1-carbonyl)-3-(pyridin-3-yloxy)-pyridine-2-carbonitrile hydrochloride salt] | 5 nM | 179 nM | 2.34 nM | 13.8 nM | –
16 | – | – | – | N#Cc1nc(C(=O)N2CCCN(C3CC3)CC2)ccc1Oc1ccc(F)cc1 [Example 59, 6-(4-Cyclopropyl-[1,4]diazepane-1-carbonyl)-3-(4-fluoro-phenoxy)-pyridine-2-carbonitrile] | 3 nM | – | 3.09 nM | 26.9 nM | –
17 | – | – | – | O=C(c1ccc(Oc2ccc(F)cc2)nc1)N1CCN(C2CCCC2)CC1 [Example 74, (4-Cyclopentyl-piperazin-1-yl)-[6-(4-fluoro-phenoxy)-pyridin-3-yl]-methanone] | 7 nM | – | 8.91 nM | 36.3 nM | –
18 | – | – | – | CSc1ccc(Oc2ccc(C(=O)N3CCCN(C4CCC4)CC3)cn2)cc1C [Example 40, (4-Cyclobutyl-[1,4]diazepan-1-yl)-[6-(3-methyl-4-methylsulfanyl-phenoxy)-pyridin-3-yl]-methanone] | 1 nM | 36 nM | 1.32 nM | 13.5 nM | –
19 | – | – | – | O=C(c1ccc(Oc2ccccc2)nc1)N1CCCN(C2CCCC2)CC1 [Example 65, (4-Cyclopentyl-[1,4]diazepan-1-yl)-(6-phenoxy-pyridin-3-yl)-methanone] | 2 nM | – | 1.15 nM | 0.661 nM | –
20 | – | – | – | O=C(c1ccc(Oc2ccc(F)c(F)c2)nc1)N1CCCN(C2CCC2)CC1 [Example 26, (4-Cyclobutyl-[1,4]diazepan-1-yl)-[6-(3,4-difluoro-phenoxy)-pyridin-3-yl]-methanone] | 1 nM | 16 nM | 0.229 nM | 2.14 nM | –
21 | – | – | – | O=C(c1ccc(Oc2ccccc2F)nc1)N1CCCN(C2CCC2)CC1 [Example 29, (4-Cyclobutyl-[1,4]diazepan-1-yl)-[6-(2-fluoro-phenoxy)-pyridin-3-yl]-methanone] | 1 nM | 20 nM | 0.813 nM | 3.55 nM | –
22 | 3.24 nM | 9.48 | – | O=C(c1ccc(Sc2ccc(F)cc2)nc1)N1CCCN(C2CCC2)CC1 [Example 83, (4-Cyclobutyl-[1,4]diazepan-1-yl)-[6-(4-fluoro-phenylsulfanyl)-pyridin-3-yl]-methanone] | – | – | – | – | –
23 | – | – | – | O=C(c1ccc(Oc2cc(F)cc(F)c2)nc1)N1CCCN(C2CCC2)CC1 [Example 36, (4-Cyclobutyl-[1,4]diazepan-1-yl)-[6-(3,5-difluoro-phenoxy)-pyridin-3-yl]-methanone] | 1 nM | 30 nM | – | – | –
24 | – | – | – | O=C(c1ccc(Oc2cccc(Cl)c2)nc1)N1CCCN(C2CC2)CC1 [Example 23, [6-(3-Chloro-phenoxy)-pyridin-3-yl]-(4-cyclopropyl-[1,4]diazepan-1-yl)-methanone] | 3 nM | 70 nM | – | – | –
25 | – | – | – | N#Cc1cccc(Oc2ccc(C(=O)N3CCCN(C4CCC4)CC3)cn2)c1 [Example 20, 3-[5-(4-Cyclobutyl-[1,4]diazepane-1-carbonyl)-pyridin-2-yloxy]-benzonitrile] | 1 nM | 17 nM | – | – | –
26 | – | – | – | O=C(c1ccc(Oc2ccc(F)c(F)c2)nc1)N1CCCN(C2CC2)CC1 [Example 27, (4-Cyclopropyl-[1,4]diazepan-1-yl)-[6-(3,4-difluoro-phenoxy)-pyridin-3-yl]-methanone] | 4 nM | 86 nM | – | – | –
27 | – | – | – | O=C(c1ccc(Sc2ccc(F)cc2)cn1)N1CCCN(C2CCC2)CC1 [Example 84, (4-Cyclobutyl-[1,4]diazepan-1-yl)-[5-(4-fluoro-phenylsulfanyl)-pyridin-2-yl]-methanone trifluoroacetic acid salt] | 2 nM | 37 nM | – | – | –

Row | SMILES | Kb [4, 5] | Human pA2 [3, 6] | Kb [3, 8] | Ki [1] | Ki [2] | Kb [3] | Kb [4] | Rat pA2 [4, 7]
28 | O=C(c1ccc(Oc2ccc(Cl)cc2)cn1)N1CCCN(C2CCC2)CC1 [Example 68, [5-(4-Chloro-phenoxy)-pyridin-2-yl]-(4-cyclobutyl-[1,4]diazepan-1-yl)-methanone trifluoroacetic acid salt] | 15.8 nM | 8.61 | – | 2 nM | – | – | – | –
29 | O=C(c1ccc(Oc2ccc(Cl)c(Cl)c2)nc1)N1CCCN(C2CCC2)CC1 [Example 14, (4-Cyclobutyl-[1,4]diazepan-1-yl)-[6-(3,4-dichloro-phenoxy)-pyridin-3-yl]-methanone] | – | 9.26 | – | 2 nM | 10 nM | – | – | 8.16
30 | O=C(c1ccc(Oc2cccc(Cl)c2)cn1)N1CCCN(C2CCC2)CC1 [Example 70, [5-(3-Chloro-phenoxy)-pyridin-2-yl]-(4-cyclobutyl-[1,4]diazepan-1-yl)-methanone trifluoroacetic acid salt] | 19.1 nM | 8.72 | – | 2 nM | – | – | – | –
